Measured values reported in patent publication US20080194628A1, “Donepezil Salts Suitable for the Preparation of Pharmaceutical Compositions” (priority 2004, published 2008).

Conditions: comparison with donepezil hydrochloride tablet

In the case of `COc1cc2c(cc1OC)C(=O)C(CC1CCN(Cc3ccccc3)CC1)C2.O=S(=O)(O)O` (stereo not shown) [Example 12, donepezil sulfate (1:1)], the “Stability of tablets prepared from the salt, compared with the tablet prepared from the hydrochloride salt” value is reported as “practically identical to that of the tablet prepared from the hydrochloride salt”.
